Experiment [1] has as its system cord blood (CB) mononuclear cells (MNC). In words: R-BC154 (IXb) binding to cord blood mononuclear cell populations, flow cytometry. Type of experiment: cell-based, human. Conditions: 1 mM Ca2+/Mg2+. As for the experimental part:
(§1) For in vitro labelling experiments, 5×10^6 BM cells from C57 mice, conditional α4^−/−/α9^−/− mice and humanised NODSCIDIL2Rγ^−/− mice and human cord blood MNCs were treated with R-BC154 (IXb) (up to 300 nM) in PBS (0.5% BSA) or TBS (0.5% BSA) containing either 1 mM CaCl2/MgCl2 (activating) or 10 mM EDTA (deactivating) at 40×10^6 cells/ml for 20 mins at 4° C. Cells were washed with cold PBS (2% FBS) and then immunolabelled as described in “Antibody Cocktails” prior to flow cytometric analysis. For in vivo experiments, C57BL/6 mice, α4^−/−/α9^−/− vav-cre mice and humanised NODSCIDIL2Rγ^−/− mice received either intravenous or subcutaneous injections of R-BC154 (IXb) (5-10 mg/kg) at 100 ul/10 gm mouse weight and analysed as described above.
(§2) For the assessment of α9β1 contribution to R-BC154 (IXb) binding, human and murine cells were stained with R-BC154 (100 nM) in the absence of competing antagonist or in the presence of excess amounts of the selective α4β1 antagonist BIO5192 (1 μM) or dual α4β1/α9β1 antagonist BOP (1 μM) in PBS containing 0.5% BSA and 1 mM CaCl2MgCl2 at 0° C. for 30 min. Cells were washed, immunolabelled as described above and analysed by flow cytometry. The contribution of α9β1 binding was calculated by measuring the difference in MFI between R-BC154 (IXb)+BIO5192 and +BOP and expressed as a % of R-BC154 (IXb) alone.

In experiment [2] the test system is HSC and progenitors isolated from human BM. Kind of experiment: R-BC154 (IXb) binding to human BM cells. Type of experiment: cell-based. Particulars: Ca2+/Mg2+. On the procedure: as §2
In experiment [3] the test system is human BM committed cells, progenitors and HSC of huNSG mice. In words: R-BC154 (IXb) binding to humanized NSG (huNSG) BM. The class given is cell-based. Conditions: Ca2+/Mg2+. On the procedure:
as §1, §2

Experiment [4] concerns murine BM progenitors (LSK) and HSC (LSKSLAM). In words: In vitro R-BC154 (IXb) binding to murine central and endosteal BM cells. Type of experiment: cell-based, mice.
Description: Populations of endosteal and central murine bone marrow cells were isolated as previously described in J. Grassinger, et al Cytokine, 2012, 58, 218-225 and D. N. Haylock et al Stem Cells, 2007, 25, 1062-1069. Briefly, one femur, tibia and iliac bone were excised and cleaned of muscle. After removing the epi- and metaphyseal regions, bones were flushed with PBS-2% FBS to obtain central bone marrow cells. Flushed long bones and epi- and metaphyseal fragments were pooled and crushed using a mortar and pestle. Bone fragments were digested with Collagenase I (3 mg/ml) and Dispase II (4 mg/ml) at 37° C. in an orbital shaker at 750 rpm. After 5 min, bone fragments were washed once with PBS and once with PBS 2% FBS to collect the endosteal bone marrow cells. Peripheral blood was collected by retro-orbital puncture and red blood cells were lysed using NH4Cl lysis buffer for 5 min at room temperature. Isolated cell populations were washed with PBS 2% FBS and then stained for flow cytometry as described in Antibody Cocktails above.
as §1
To determine whether integrin activation is required for binding to both central and endosteal BM progenitors (Lin^−Sca-1^+ckit^+ cells; LSK) and HSC (LSKCD150^+CD48^− cells; LSKSLAM) (FIG. 3a), R-BC154 (IXb) binding was assessed in the presence of 1 mM Ca^2+/Mg^2+ (FIG. 3b).

Experiment [5] concerns progenitors (LSK) and HSC (LSKSLAM) in peripheral blood. In words: HSC mobilization to peripheral blood in mice. The class given is in vivo. Conditions: single agent, single dose. As for the experimental part:
For mobilization experiments, all mice received subcutaneous injections at 100 μl/10 gm body weight and PB was harvested by throat bleed using EDTA coated syringes.
(a) R-BC154 (IXb) and BOP. Mice received a single injection of freshly prepared solutions of R-BC154 (IXb) and BOP in saline at the doses indicated before PB was harvested by throat bleed at the times indicated.
(b) G-CSF. Mice received G-CSF at 250 μg/kg twice daily (500 ug/kg/day), 6-8 hours apart for 4 consecutive days. Groups receiving G-CSF and BOP received the standard G-CSF regime as described above followed by a single injection of BOP 1 h prior to harvest. Control mice received an equal volume of saline.
Mice received subcutaneous injections at 100 μl/10 gm body weight of a single injection of BOP (up to 15 mg/kg) for various timeframes, a single BIO5192 injection at 1 mg/kg for 1 hour, a single AMD3100 injection at 3 mg/kg for 1 hour (mice also receiving BOP or BIO15192 were injected with a single dose of BOP or BIO15192 1 hour prior to harvest), or G-CSF at 250 μg/kg twice daily (500 μg/kg/day), 6-8 hours apart for 4 consecutive days (mice also receiving BOP and/or AMD3100 were injected with a single dose of BOP and/or AMD3100 1 h prior to harvest). Control mice received an equivalent volume of saline or 10% HPβCD/saline where appropriate.

We go through one molecule from patent US20170340693A1, “DISLODGEMENT AND RELEASE OF HSC USING ALPHA 9 INTEGRIN ANTAGONIST AND CXCR4 ANTAGONIST” (COMMONWEALTH SCIENTIFIC AND INDUSTRIAL RESEARCH ORGANISATION, priority 2014, published 2017).

Each structure is given as a SMILES string.

`CCN(CC)c1ccc2c(-c3ccc(S(=O)(=O)NCc4cn(C5C[C@@H](C(=O)N[C@@H](Cc6ccc(OC(=O)N7CCCC7)cc6)C(=O)O)N(S(=O)(=O)c6ccccc6)C5)nn4)cc3S(=O)(=O)[O-])c3ccc(=[N+](CC)CC)cc-3oc2c1` (stereo partly shown) [R-BC154 (IXb)]: in experiment [1], the “binding to CB HSC (CD34+CD38−) and progenitors (CD34+CD38+)” value is given as “high”; the “binding to CB lineage committed cells (CD34−CD38+)” value is recorded as “modest”. Besides, in experiment [2], the “binding to HSC and progenitors isolated from human BM” value is on record as “efficiently bound”. Moreover, the “binding through α9β1 on huNSG BM committed cells, progenitors and HSC” value in experiment [3] was “significant binding through α9β1 only occurred on HSC”. Besides, the “binding to central versus endosteal LSK and LSKSLAM” value in experiment [4] (1 mM Ca2+/Mg2+) was “greater binding to central LSK and LSKSLAM was observed relative to their endosteal counterparts”. Also, the “binding to α4−/−/α9−/− LSK and LSKSLAM cells” value in experiment [4] (BM of α4flox/flox α9flox/flox vav-cre mice) is given as “essentially absent”. The “binding to HSC and progenitors on co-treatment with EDTA” value in experiment [4] (EDTA (deactivating)) was “completely abolished activity”. Further, the “binding to endosteal and central LSK” value in experiment [4] (absence of both activating cations and EDTA) is given as “binding to endosteal LSK cells was still evident but not to central LSK”. In addition, the “binding to lineage committed lymphoid and myeloid cells relative to LSKSLAM and LSK” value in experiment [4] (exogenous activation) is recorded as “significantly lower relative to LSKSLAM”. Moreover, the “increase in PB progenitors (LSK) and HSC (LSKSLAM)” value in experiment [5] is recorded as “moderate increases”.
